Source: patent US4562287A, “2-(4-Biphenylyl)-4-hexenoic acid and derivatives thereof having anti-inflammatory activity” (priority 1983, dated 1985)

What was measured:
Carragenine edema = test: Edema induced by different substances: carragenine (Table 3); format: in vivo
Description: (§1) |Edema induced by different substances.

Kaolin edema = test: Edema induced by different substances: kaolin (Table 3); format: in vivo
Description: as §1

Yeast edema = test: Edema induced by different substances: yeast (Table 3); format: in vivo
Description: |Edema induced by different substances. | % edema inhibition

Serotonin edema = test: Edema induced by different substances: serotonin (Table 3); format: in vivo
Description: as §1

Dextrose edema = test: Edema induced by different substances: dextrose (Table 3); format: in vivo
Description: as §1

[1] = tested on: capillary permeability (Histamine); test: Effect on the capillary permeability, histamine; format: in vivo; details: 200 mg/Kg p.o., checks 21.33
Description: (§2) |Effect on the capillary permeability

[2] = tested on: capillary permeability (Dextran); test: Effect on the capillary permeability, dextran; format: in vivo; details: 200 mg/Kg p.o., checks 14.83
Description: as §2

[3] = tested on: Cotton-pellets induced granuloma; test: Cotton-pellets induced granuloma; format: in vivo; details: 200 mg/Kg p.o.
Description: | Cotton-pellets induced granuloma.

[4] = tested on: Carragenine induced edema; test: Activity on carragenine induced edema (Table 9); format: in vivo
Description: |Activity on carragenine induced edema.

[5] = tested on: Hot plate, endurance time at 52° C.; test: Analgesic activity, Hot plate (I); format: in vivo; details: 50 mg/Kg p.o.
Procedure: Dose endurance time at 52° C. over checks

[6] = tested on: Carragenine induced edema; test: Anti-inflammatory activity on carragenine induced edema (Table 11); format: in vivo
[7] = tested on: capillary permeability (Serotonin); details: 200 mg/Kg p.o., checks 18.16
[8] = British Patent No. 847.779; cited from earlier work
[9] = tested on: Carragenine induced edema; test: Carragenine induced edema, first test (Table 2); format: in vivo
Description: |ANTI-INFLAMMATORY ACTIVITY. |Carragenine induced edema, first test.

Joint's diameter = Joint's diameter in arthritis (Table 7); format: in vivo; set-up: unit not given here
SH Groups in serum = test: SH groups in serum (Table 8); format: in vivo; details: arthritis checks 70, 77
[10] = tested on: erytrocytes sedimetation rate (ESR); test: Erytrocytes sedimetation rate (ESR) (Table 8); format: in vivo; details: arthritis checks 41, 56
ulcerogenic effect = details: dose 5 mg; cited from earlier work
[11] = tested on: Freund's adjuvant induced arthritis; test: Freund's adjuvant induced arthritis, edema inhibition

In the case of CC=CCC(C(=O)O)c1ccc(-c2ccccc2)cc1 (racemic) [SCR 157, 2-(4-biphenyl)-4-hexenoic acid], the “% edema inhibition” value (Carragenine edema; 50 mg/Kg p.o.) is reported as 8%, the “% edema inhibition” value (Carragenine edema; 100 mg/Kg p.o.) is reported as 43% and the “% edema inhibition” value (Carragenine edema; 200 mg/Kg p.o.) is reported as 64%. The “% edema inhibition” value (Kaolin edema; 50 mg/Kg p.o.) was 42%, the “% edema inhibition” value (Kaolin edema; 100 mg/Kg p.o.) was 49% and the “% edema inhibition” value (Kaolin edema; 200 mg/Kg p.o.) was 57%. The “% edema inhibition” value (Yeast edema; 50 mg/Kg p.o.) was 11%, the “% edema inhibition” value (Yeast edema; 100 mg/Kg p.o.) was 22% and the “% edema inhibition” value (Yeast edema; 200 mg/Kg p.o.) was 28%. The “% edema inhibition” value (Serotonin edema; 50 mg/Kg p.o.) was 0%, the “% edema inhibition” value (Serotonin edema; 100 mg/Kg p.o.) was 16% and the “% edema inhibition” value (Serotonin edema; 200 mg/Kg p.o.) was 22%. The “% edema inhibition” value (Dextrose edema; 50 mg/Kg p.o.) was 0%, the “% edema inhibition” value (Dextrose edema; 100 mg/Kg p.o.) was 8% and the “% edema inhibition” value (Dextrose edema; 200 mg/Kg p.o.) was 8%. The “Effect on the capillary permeability, .0. m.micron” value (“Effect … .0. m.micron” below) [1] was 20.28 m.micron, the “Effect … .0. m.micron” value [2] was 14.85 m.micron and the “% inhibition” value [3] was 29%. The Inhibition % ([4]; 50 mg/Kg p.o.) was 10%, the Inhibition % ([4]; 75 mg/Kg p.o.) was 31% and the Inhibition % ([4]; 112,5 mg/Kg p.o.) was 24%. For the same molecule, the “endurance time at 52° C. over checks” value ([5]; 1 hour) was 3, the “endurance time at 52° C. over checks” value ([5]; 2 hours) was 26 and the “% inhibition” value ([6]; 50 mg/Kg p.o.) was 33%. For the same molecule, the “Effect … .0. m.micron” value [7] was 16.57 m.micron and the “anticholesterinemic and antiliphaemic properties” value [8] was “exhibits properties of anticholesterinemic and antiliphaemic agent”.

In the case of COc1ccc2c(c1)c(CC(=O)O)c(C)n2C(=O)c1ccc(Cl)cc1 [Indomethacin], the “% inhibition” value ([9]; 2.5 mg/Kg p.o.) is reported as 33%, the “% inhibition” value ([9]; 5 mg/Kg p.o.) is reported as 36% and the “% inhibition” value ([9]; 10 mg/Kg p.o.) is reported as 48%. For the same molecule, the “Joint's diameter” value (Joint's diameter; 1 mg/Kg p.o., 1 week, arthritis checks 0.48, 0.38) was 0.38, the “Joint's diameter” value (Joint's diameter; 1 mg/Kg p.o., 2 weeks, arthritis checks 0.71, 0.75) was 0.50 and the “Joint's diameter” value (Joint's diameter; 1 mg/Kg p.o., 3 weeks, arthritis checks 0.81, 0.79) was 0.49. For the same molecule, the “Joint's diameter” value (Joint's diameter; 1 mg/Kg p.o., 4 weeks, arthritis checks 0.85, 0.89) was 0.55, the “Joint's diameter” value (Joint's diameter; 2 mg/Kg p.o., 1 week, arthritis checks 0.48, 0.38) was 0.22 and the “Joint's diameter” value (Joint's diameter; 2 mg/Kg p.o., 2 weeks, arthritis checks 0.71, 0.75) was 0.39. For the same molecule, the “Joint's diameter” value (Joint's diameter; 2 mg/Kg p.o., 3 weeks, arthritis checks 0.81, 0.79) was 0.34, the “Joint's diameter” value (Joint's diameter; 2 mg/Kg p.o., 4 weeks, arthritis checks 0.85, 0.89) was 0.34 and the “SH groups diminution in %” value (SH Groups in serum; 1 mg/Kg p.o.) was 78%. The “SH groups diminution in %” value (SH Groups in serum; 2 mg/Kg p.o.) was 50%, the E.S.R. ([10]; 1 mg/Kg p.o.) was 38 and the E.S.R. ([10]; 2 mg/Kg p.o.) was 15. For the same molecule, the “% inhibition” value ([6]; 5 mg/Kg p.o.) was 38%, the ulcerogenic effect (ulcerogenic effect) was “exhibits surely ulcerogenic effect” and the Edema inhibition % ([11]; 1 mg/Kg p.o., 2 days) was 49%. It also gave an Edema inhibition % ([11]; 1 mg/Kg p.o., 4 days) of 7%, an Edema inhibition % ([11]; 1 mg/Kg p.o., 8 days) of 27% and an Edema inhibition % ([11]; 1 mg/Kg p.o., 12 days) of 58%. The Edema inhibition % ([11]; 1 mg/Kg p.o., 16 days) was 60%, the Edema inhibition % ([11]; 1 mg/Kg p.o., 20 days) was 37% and the Edema inhibition % ([11]; 1 mg/Kg p.o., 24 days) was 57%. It also gave an Edema inhibition % ([11]; 2 mg/Kg p.o., 2 days) of 49%, an Edema inhibition % ([11]; 2 mg/Kg p.o., 4 days) of 35% and an Edema inhibition % ([11]; 2 mg/Kg p.o., 8 days) of 51%. The Edema inhibition % ([11]; 2 mg/Kg p.o., 12 days) was 48%, the Edema inhibition % ([11]; 2 mg/Kg p.o., 16 days) was 71% and the Edema inhibition % ([11]; 2 mg/Kg p.o., 20 days) was 73%. For the same molecule, the Edema inhibition % ([11]; 2 mg/Kg p.o., 24 days) was 71%.
